The term solubility denotes how much of the substance goes into solution per volume.

This note sets out measurements from patent US20230165806A1, “Topical Therapy of Skin Fibrosis and Melanoma” (Board of Regents, The University of Texas System, priority 2021, published 2023).

The data set is described as follows: Solubility of NAVI in COA ionic liquid. The data set is classed as physicochemical. The source says:
Skin melanoma remains one of the fastest-growing and the most common types of cancer in the United States and worldwide. Although primary melanoma can be removed by surgery if detected, advanced metastatic melanoma cannot be managed by surgery alone and thus an alternative and effective therapeutic approach is required. Direct local application of anti-cancer drugs may effectively treat topical cancerous skin lesions when surgery is not feasible. However, these therapies are severely limited due to the protective nature of the skin and the fact that current topical treatments may cause skin irritation, burning, light sensitivity, scaling, and inflammation. To treat early-stage melanoma, we have developed a topical formulation of Navitoclax (NAVI), a BCL-2 inhibitor that upregulates apoptosis, in association with an ionic liquid composed of Choline Octanoate (COA) at a molar ratio of 1:1. NAVI is a small hydrophobic molecule that solubilizes at 20% (w/v) when dissolved into 50% (DW v/v) COA. […] Therefore, COA-mediated topical delivery of NAVI enhanced transportation through the skin barrier and held the drug in the deeper skin layers for an extended period compared to the control.
The main challenges in treating fibrosis with chemotherapeutics are epidermal layer penetration, the appropriate concentration, and drug retention within the layer for a more extended period. […]

Structures are written as SMILES.

As to `CC1(C)CCC(c2ccc(Cl)cc2)=C(CN2CCN(c3ccc(C(=O)NS(=O)(=O)c4ccc(N[C@H](CCN5CCOCC5)CSc5ccccc5)c(S(=O)(=O)C(F)(F)F)c4)cc3)CC2)C1` [NAVI, Navitoclax], under “choline octanoate (COA) ionic liquid, aqueous with cosolvent or surfactant or cyclodextrin, with COA, read-out: solubility of NAVI increased by COA”, the solubility was at most 150 µg/mL. Also, the “solubility of NAVI” value (dissolved into 50% (DW v/v) COA) is given as 20 % (w/v).
